Experimental data from patent US20110262561A1, “Protoilludance Norsesquiterpenoid Esters and Uses Thereof” (NATIONAL RESEARCH INSTITUTE OF CHINESE MEDICINE, priority 2010, published 2011).
Where two headings read alike, the source gives them in different places.

How the values were obtained:
[1] = system: endothelial cells (human endothelial-like cells, Eahy926); assay: MTT cell viability of endothelial cells (ECs); type: cell-based
Procedure: (§1) The endothelial cells (human endothelial-like cells, Eahy926) and 4 cancer cell lines (MCF-7, H460, HT-29, and CEM) were derived from the American Type Culture Collection (ATCC) and were maintained in DMEM or RPMI medium (Life Technologies) supplemented with 2 mM L-glutamine and 10% heat-inactivated fetal bovine serum (FBS) (Life Technologies) under standard culture conditions. The cell viability and cell number were determined by the Trypan Blue dye-exclusion method.
(§2) Anti-angiogenic effects of CH-205 compounds were estimated by their inhibition on the growth of endothelial cells. The toxicity of CH-205 compounds to endothelial cells was estimated using MTT (3-(4,5-dimethy;thiazol-2-yl)-2,5-diphenyltetrazolium bromide, a tetrazole) assay. MTT assay is a standard colorimetric assay (an assay which measures changes in color) for measuring the activity of enzymes that reduce yellow MTT to formazan, giving a purple color. It is also used to determine cytotoxity of potential medicinal agents and other toxic materials, since those agents would result in cell toxicity and therefore metabolic dysfunction and therefore decreased performance in the assay. The cytotoxity concentrations of the CH-205 compounds measured in MTT test are all over 20 μM (Table 2), however, their effects on angiogenesis inhibition are in nM range, indicating the safety of these compounds (Table 3).

[2] = MTT cell viability of endothelial cells (ECs); type: cell-based, human; conditions: human, column head prints none, read-out: Cell viability IC50 (cytotoxicity concentration on ECs)
Procedure: as §1, §2

HT-29 = assay: Alamar blue cytotoxicity assay on HT-29 cancer cells; type: cell-based; conditions: for IC50: Homo sapiens, HT-29, alamar blue, 48 hours treatment
Procedure: as §1
(§3) The alamar blue (AB) assay (dye purchased from Biosource International, Nivelles, Belgium) was used to estimate cell viability in accordance with procedures previously described by Fatokun et al (Bone (2006) 39, 542-551). Briefly, cells were treated with various concentration of each of the test compounds (e.g., compounds of example 1.1) at 37° C. for 48 hours, and the medium in each well was then aspirated at the end of the treatment, 100 μL of fresh medium containing 10% v/v AB was then added to the control and the treated wells, respectively. Plates were then incubated at 37° C. for 6 hour prior to measuring the absorbance at 570 nm and at 600 nm wavelengths using a spectrophotometric plate reader (DYNEX Technologies, USA). Experimental data were normalized to control values. CH-205-A, K, L, O, and -P were effective on MCF-7 cells; CH-205-A, H, K, L, O, and -P were effective on H460 cells; CH-205-A and -P were effective on HT-29 cells and CH-205-A, H, N, and -O were effective on CEM cells.

CEM = assay: Alamar blue cytotoxicity assay on CEM cancer cells; type: cell-based; conditions: for IC50: Homo sapiens, CCRF-CEM, alamar blue, 48 hours treatment
Procedure: as §1, §3

endothelial cells (ECs) = assay: In vitro antiangiogenesis on ECs (inhibition of endothelial cell growth); type: cell-based; conditions: Homo sapiens, read-out: In vitro antiangiogenesis IC50
Procedure: as §1, §2

H460 = assay: Alamar blue cytotoxicity assay on H460 cancer cells; type: cell-based, human; conditions: for IC50: Homo sapiens, NCI-H460, alamar blue, 48 hours treatment
Procedure: as §1, §3

MCF-7 = assay: Alamar blue cytotoxicity assay on MCF-7 cancer cells; type: cell-based; conditions: for IC50: Homo sapiens, MCF7, alamar blue, 48 hours treatment
Procedure: as §1, §3

[3] = system: H460 human lung cancer tumor xenograft; conditions: for effect on body weight: mouse, in vivo
Procedure: The established, transplantable, 5×10^6/200 μL H460 tumor cells were prepared in RPMI medium. The 200 μL of cell suspension was injected subcutaneously into right flank area of each mouse. The mice were randomized into vehicle control and drug treatment groups of four-six animals each when xenografts were palpable with a tumor size of 40 mm^3. Adminitration of the lead compounds or vehicle began on day 15 when the median tumor size was ranged from 75 to 80 mm^3. Tumor-bearing animals were randomized (five per group) prior to treatment. The candidate test drugs were intraperitoneal (IP) administered into with optimal dosage once every other day (48 hr apart) for 7 or 10 times. […] Solvent vehicle and cisplatin (5 mg/kg) were used to administrate, respectively, as io negative and positive controls. Two days after last administration of tested compounds, the animals were sacrificed. The tumor dimensions were measured every other day using a linear caliper and tumor volume is calculated using the equation V (mm^3)=a×b^2/2, where a is the largest diameter and b is the smallest diameter. Body weights are also recorded once weekly. Tumor is growth inhibition ratio (TGI) is calculated using the equation TGI=(1−(the mean treated tumor mass/mean control tumor mass))*100%.

SMILES	Cell viability (% of control) 1 μM [1]	Cell viability (% of control) 10 μM [1]	Cell viability (% of control) 50 μM [1]	Cell viability (% of control) 100 μM [1]	Cell viability (% of control) 250 μM [1]	Cell viability (% of control) 500 μM [1]	IC50 ([2]; Eahy926 endothelial-like cells)	IC50 (HT-29)	IC50 (CEM)	IC50 (endothelial cells (ECs); ECs)	IC50 (H460)	IC50 (MCF-7)	effect on body weight [3]	effective on H460 cells (H460)	effective on MCF-7 cells (MCF-7)	further results
Cc1c(Cl)c(O)cc(O)c1C(=O)OCC1=C[C@@H]2CC(C)(C)C[C@@H]2[C@@]2(C)C[C@@H](O)[C@@]12O [CH-205-H, (((2R,2aS,4aS,7aS,7bR)-2,2a,4a,5,6,7,7a,7b-octahydro-2,2a-dihydroxy-6,6,7 b-trimethyl-1H-cyclobuta[e]inden-3-yl)methyl 3-chloro-4,6-dihydroxy-2-methylbenzoate)]	99.7 % of control	128.7 % of control	34.9 % of control	12.7 % of control	8.4 % of control	7.0 % of control	29.3 µM	7.1 µM	5.4 µM	0.0013 µM	5.5 µM	56.5 µM	–	–	–	melting point: 148 to 149 °C
Cc1c(Cl)c(O)cc(O)c1C(=O)O[C@@H]1C[C@]2(C)C3CC(C)(C)CC3C=C(CO)[C@]12O (stereo partly drawn) [CH-205-K, (2R,2aS,7bR)-2,2a,4a,5,6,7,7a,7b-octahydro-2a-hydroxy-3-(hydroxymethyl)-6,6,7b-trimethyl-1H-cyclobuta[e]inden-2-yl 3-chloro-4,6-dihydroxy-2-methylbenzoate]	103.7 % of control	122.7 % of control	6.4 % of control	6.4 % of control	7.0 % of control	8.8 % of control	21.4 µM	56.7 µM	28.8 µM	0.0032 µM	4.5 µM	4.8 µM	no different effect on body weight	effective	effective	tumor volume after sacrifice ([3]; CH-205-K study, 4 mg/kg IP every other day, 7 times, control 1.743±0.129): 1.364±0.14 cm^3; Tumor growth inhibition ratio (TGI) ([3]; CH-205-K study, 4 mg/kg IP, 7 times): 21.74%; tumor volume after sacrifice ([3]; CH-205-K study, 20 mg/kg IP every other day, 7 times, control 1.743±0.129): 1.283±0.077 cm^3; Tumor growth inhibition ratio (TGI) ([3]; CH-205-K study, 20 mg/kg IP, 7 times): 26.38%; tumor volume after sacrifice ([3]; CH-205-K study, 40 mg/kg IP every other day, 7 times, control 1.743±0.129): 1.109±0.119 cm^3; Tumor growth inhibition ratio (TGI) ([3]; CH-205-K study, 40 mg/kg IP, 7 times): 36.38%; tumor volume after sacrifice ([3]; CH-205-K study, 80 mg/kg IP every other day, 7 times, control 1.743±0.129): 0.867±0.086 cm^3; Tumor growth inhibition ratio (TGI) ([3]; CH-205-K study, 80 mg/kg IP, 7 times): 50.29%
COc1cc(O)c(C(=O)O[C@@H]2C[C@]3(C)C4CC(C)(C)CC4C=C(C=O)[C@]23O)c(C)c1Cl (stereo partly drawn) [CH-205-O, (2R,2aS,7bR)-3-formyl-2,2a,4a,5,6,7,7a,7b-octahydro-2a-hydroxy-6,6,7b-trimethyl-1 H-cyclobuta[e]inden-2-yl 3-chloro-6-hydroxy-4-methoxy-2-methylbenzoate]	98.5 % of control	43.6 % of control	7.0 % of control	6.5 % of control	7.1 % of control	7.0 % of control	13.2 µM	42.1 µM	5.1 µM	0.0021 µM	4.5 µM	1.7 µM	no different effect on body weight	effective	effective	effective on CEM cells (CEM): effective; tumor volume after sacrifice ([3]; CH-205-O study, 4 mg/kg IP every other day, 10 times, solvent control 3.984±0.484): 1.475±0.155 cm^3; Tumor growth inhibition ratio (TGI) ([3]; CH-205-O study, 4 mg/kg IP, 10 times): 60.87%; tumor volume after sacrifice ([3]; CH-205-O study, 40 mg/kg IP every other day, 10 times, solvent control 3.984±0.484): 1.470±0.177 cm^3; Tumor growth inhibition ratio (TGI) ([3]; CH-205-O study, 40 mg/kg IP, 10 times): 70.7%; tumor volume after sacrifice ([3]; CH-205-O study, 80 mg/kg IP every other day, 10 times, solvent control 3.984±0.484): 1.645±0.206 cm^3; Tumor growth inhibition ratio (TGI) ([3]; CH-205-O study, 80 mg/kg IP, 10 times): 62.9%; tumor regression ([3]; CH-205-O study, 4, 40 and 80 mg/kg each other day, after 10 injections): highly significant tumor regression
COc1cc(O)c(C(=O)O[C@@H]2C[C@]3(C)C4C(C=C(C=O)[C@]23O)CC(C)(C)[C@@H]4O)c(C)c1Cl (stereo partly drawn) [CH-205-P, (2R,2aS,7R,7bR)-3-formyl-2,2a,4a,5,6,7,7a,7b-octahydro-2a,7-dihydroxy-6,6,7b-trimethyl-1H-cyclobuta[e]inden-2-yl 3-chloro-6-hydroxy-4-methoxy-2-methylbenzoate]	105.1 % of control	78.5 % of control	6.8 % of control	9.8 % of control	6.8 % of control	9.6 % of control	20.7 µM	34.7 µM	44.6 µM	0.0018 µM	5.7 µM	4.4 µM	–	effective	effective	effective on HT-29 cells (HT-29): effective
Cc1c(Cl)c(O)cc(O)c1C(=O)O[C@@H]1C[C@]2(C)C3[C@@H](O)C(C)(C)C[C@@]3(O)C=C(C=O)[C@]12O (stereo partly drawn) [CH-205-Q, (2R,2aS,4aR,7R,7bR)-3-formyl-2,2a,4a,5,6,7,7a,7b-octahydro-2a,4a,7-trihydroxy-6,6,7b-trimethyl-1H-cyclobuta[e]inden-2-yl 3-chloro-4,6-dihydroxy-2-methyl benzoate]	104.7 % of control	98.9 % of control	105.5 % of control	108.6 % of control	100.2 % of control	74.1 % of control	–	> 100 µM	> 100 µM	–	> 100 µM	> 100 µM	–	–	–	IC50 [2]: > 500 µM; IC50 (endothelial cells (ECs)): 0.001 µM
